Values after ≈ are worked out from the molar mass of the structure shown. One block for each molecule: values may come before it.
Experiments:
[1] = Inhibition of bovine brain FTase; parameters: species or system Bos taurus
HeLa [2] = experiment: Antitumor activity against human HeLa cells; format: functional, cell-based
HCT-116 = experiment: Antitumor activity against human HCT116 cells; format: functional, cell-based
HL-60 = experiment: Antitumor activity against human HL60 cells; format: functional, cell-based
B16 = experiment: Antitumor activity against mouse B-16 cells; format: functional, cell-based
U-937 = experiment: Antitumor activity against human U937 cells; format: functional, cell-based
HT-29 = experiment: Antitumor activity against human HT29 cells; format: functional, cell-based
THP-1 = experiment: Antitumor activity against human THP1 cells; format: functional, cell-based
Capan-2 = experiment: Antitumor activity against human Capan-2 cells incubated for 48 to 72 hrs by MTS Assay; format: functional, cell-based
PC-3 [3] = experiment: Antitumor activity against human PC-3 cells incubated for 72 hrs by SRB calorimetric assay; format: functional, cell-based; conditions: PC-3, 72 h
HepG2 [4] = experiment: Antitumor activity against human HepG2 cells incubated for 72 hrs by SRB calorimetric assay; format: functional, cell-based; conditions: HepG2, 72 h
BXPC-3 = experiment: Antitumor activity against human BXPC-3 cells incubated for 48 to 72 hrs by MTS Assay; format: functional, cell-based
PANC-1 [5] = experiment: Antitumor activity against human PANC-1 cells incubated for 48 to 72 hrs by MTS Assay; format: functional, cell-based
HepG2 [6] = experiment: Antiproliferative activity against human HepG2 cells assessed as cell viability incubated for 48 hrs by Cell Counting Kit-8 assay; format: functional, cell-based; conditions: HepG2, 48 h
PC-3 [7] = experiment: Antiproliferative activity against human PC3 cells assessed as cell viability incubated for 48 hrs by Cell Counting Kit-8 assay; format: functional, cell-based; conditions: PC-3, 48 h
[8] = Antiproliferative activity against human U87 cells overexpressing miR-9 assessed as cell viability incubated for 48 hrs by Cell Counting Kit-8 assay; format: functional, cell-based, U-87MG ATCC; conditions: U-87 MG
Ca-Ski = experiment: Antitumor activity against human Ca-Ski cells assessed as cell growth inhibition incubated for 5 days by MTT assay; format: functional, cell-based; conditions: 120 h
SiHa = experiment: Antitumor activity against human SiHa cells assessed as cell growth inhibition incubated for 5 days by MTT assay; format: functional, cell-based; conditions: 120 h
C-33-A = experiment: Antitumor activity against human C-33-A cells assessed as cell growth inhibition incubated for 5 days by MTT assay; format: functional, cell-based; conditions: 120 h
HeLa [9] = experiment: Antitumor activity against human HeLa cells assessed as cell growth inhibition incubated for 5 days by MTT assay; format: functional, cell-based; conditions: 120 h
HT-3 = experiment: Antitumor activity against human HT-3 cells assessed as cell growth inhibition incubated for 5 days by MTT assay; format: functional, cell-based; conditions: HT-3, 120 h
BV-2 = experiment: Cytotoxicity against LPS stimulated mouse BV-2 cells by MTS assay; format: functional, cell-based
[10] = Cytotoxicity against mouse C2C12 cells incubated for 48 to 72 hrs by MTS assay; format: toxicity, cell-based
[11] = Cytotoxicity against human HAF cells incubated for 48 to 72 hrs by MTS assay; format: toxicity, cell-based, Fibroblast; conditions: HAF cells (fibroblasts)
[12] = Inhibition of NO production in LPS stimulated mouse BV-2 cells measured after 24 hrs; format: functional, cell-based; conditions: BV-2, 24 h
[13] = Cytotoxicity against human HAF cells; format: toxicity, cell-based, Fibroblast; conditions: HAF cells (fibroblasts)
[14] = Cytotoxicity against mouse C2C12 cells; format: toxicity, cell-based
PLC = experiment: Antitumor activity against human PLC cells incubated for 72 hrs by hemocytometer; format: functional, cell-based
HeLa [15] = experiment: Antitumor activity against human HeLa cells incubated for 72 hrs by hemocytometer; format: functional, cell-based
PANC-1 [16] = experiment: Antitumor activity against human PANC-1; format: functional, cell-based; conditions: pooled result: one value given for 3 cell lines, strains, targets or settings
[17] = Cytotoxicity against human HaCaT cells incubated for 48 to 72 hrs by MTS assay; format: toxicity, cell-based
[18] = Cytotoxicity against human HaCaT cells; format: toxicity, cell-based
A549 = experiment: Antitumor activity against human A549 cells incubated for 72 hrs by MTT assay; format: functional, cell-based; conditions: A549, 72 h
MCF7 = experiment: Antitumor activity against human MCF7 cells incubated for 72 hrs by MTT assay; format: functional, cell-based; conditions: MCF7, 72 h
K562 = experiment: Antitumor activity against human K562 cells incubated for 24 hrs by CCK-8 assay; format: functional, cell-based; conditions: K562, 24 h
Pichia kudriavzevii = experiment: Antifungal activity against Pichia kudriavzevii IFO 0590 assessed as inhibition of fungal growth incubated for 72 hrs by broth dilution method; format: functional
Saccharomyces cerevisiae = experiment: Antifungal activity against Saccharomyces cerevisiae IFO 0304 assessed as inhibition of fungal growth incubated for 72 hrs by broth dilution method; format: functional
Aspergillus japonicus = experiment: Antifungal activity against Aspergillus japonicus IAM 2016 assessed as inhibition of fungal growth incubated for 72 hrs by broth dilution method; format: functional
Rhizopus delemar = experiment: Antifungal activity against Rhizopus delemar IAM 6015 assessed as inhibition of fungal growth incubated for 72 hrs by broth dilution method; format: functional
Rhizomucor pusillus = experiment: Antifungal activity against Rhizomucor pusillus IAM 6122 assessed as inhibition of fungal growth incubated for 72 hrs by broth dilution method; format: functional
L5178Y = experiment: Cytotoxicity against mouse L5178Y cells; format: functional
[19] = Toxicity in CDF1 mouse allografted with mouse […] cells assessed as lethal dose administered for 6 days ,ip; format: cell-based; conditions: in vivo, time 6 day
Cyberlindnera jadinii = experiment: Antifungal activity against Cyberlindnera jadinii IFO 0396 assessed as inhibition of fungal growth incubated for 72 hrs by broth dilution method; format: functional; conditions: Williopsis jadinii
Penicillium chrysogenum = experiment: Antifungal activity against Penicillium chrysogenum1AM 7106 assessed as inhibition of fungal growth incubated for 72 hrs by broth dilution method; format: functional; conditions: 1AM 7106

IC50 [1]: 1.2 µg/mL (≈ 1.88 µM)
Structure (SMILES): CO[C@H]1/C=C/C=C/C=C/C[C@H](OC(=O)[C@@H](C)NC(=O)C2=CCCCC2)[C@H](C)[C@@H](O)/C(C)=C\CCc2cc(O)cc(c2O)NC(=O)C1

IC50 (HeLa [2]): 300 nM
IC50 (HCT-116): 300 nM
IC50 (HL-60): 300 nM
IC50 (B16): 300 nM
IC50 (U-937): 300 nM
IC50 (HT-29): 300 nM
IC50 (THP-1): 300 nM
Structure (SMILES): CO[C@H]1/C=C/C=C/C=C/C[C@H](OC(=O)C2(NC(=O)C3=CCCCC3)CC2)[C@H](C)[C@@H](O)/C(C)=C\CCc2c(O)c(cc3c2SCC(=O)N3)NC(=O)C1

IC50 (PC-3 [3]): > 10000 nM
IC50 (HepG2 [4]): > 10000 nM
IC50 (BXPC-3): > 10000 nM
IC50 (PANC-1 [5]): > 10000 nM
Structure (SMILES): CO[C@H]1/C=C/C=C/C=C/C[C@H](O)[C@H](C)[C@@H](OC(=O)[C@@H](C)NC(=O)C(C)C)/C(C)=C\CCc2cc(O)cc(c2)NC(=O)C1
IC50 (Capan-2): > 10000 nM

IC50 (HepG2 [6]): > 10000 nM
IC50 (PC-3 [7]): > 10000 nM
Structure (SMILES): CO[C@@H]1CC(=O)Nc2c(O)c3cc4c2[C@H]1[C@@H](/C=C/C=C/C[C@H](O)[C@H](C)[C@@H](OC(=O)[C@@H](C)NC(=O)C1CCCCC1)/C(C)=C\CC3)O4
IC50 [8]: > 10000 nM

IC50 (HeLa [9]): 70 nM
Structure (SMILES): CO[C@H]1/C=C/C=C/C=C/C[C@H](OC(=O)[C@@H](C)NC(=O)C2CCCCC2)[C@H](C)[C@@H](O)/C(C)=C\CCC2=C(O)C(=O)C=C(NC(=O)C1)C2=O
IC50 (Ca-Ski): 70 nM
IC50 (SiHa): 70 nM
IC50 (C-33-A): 70 nM
IC50 (HT-3): 70 nM

EC50 [12]: 25.4 nM
IC50 (PLC): 8 nM
IC50 (HeLa [15]): 8 nM
IC50 (PANC-1 [16]): 8 nM
Structure (SMILES): CO[C@H]1/C=C/C=C/C=C/C[C@H](OC(=O)[C@@H](C)NC(=O)C2CCCCC2)[C@H](C)[C@@H](O)/C(C)=C\CCc2cc(O)cc(c2)NC(=O)C1 [TRIENOMYCIN A]
IC50 (BV-2): 8 nM
IC50 [10]: > 10000 nM
IC50 [11]: > 10000 nM
IC50 [13]: 8 nM
IC50 [14]: 8 nM
IC50 [17]: > 10000 nM
IC50 [18]: 8 nM

Structure (SMILES): C/C=C(\C)C(=O)N[C@H](C)C(=O)O[C@H]1C/C=C/C=C/C=C/[C@H](OC)CC(=O)Nc2cc(O)cc(c2O)CC/C=C(/C)[C@H](O)[C@H]1C
IC50 [1]: 0.6 µg/mL (≈ 0.982 µM)

IC50 (A549): > 10000 nM
IC50 (MCF7): > 10000 nM
IC50 (K562): > 10000 nM
Structure (SMILES): CO[C@H]1/C=C/C=C/C=C/C[C@H](OC(C)=O)[C@H](C)[C@@H](O)/C(C)=C\CCc2cc(O)cc(c2)NC(=O)C1

IC50 (HeLa [9]): 450 nM
Structure (SMILES): CO[C@H]1/C=C/C=C/C=C/C[C@H](O)[C@H](C)[C@@H](OC(=O)[C@@H](C)NC(=O)C2CCCCC2)/C(C)=C\CCC2=C(O)C(=O)C=C(NC(=O)C1)C2=O
IC50 (Ca-Ski): 450 nM
IC50 (SiHa): 450 nM
IC50 (C-33-A): 450 nM
IC50 (HT-3): 450 nM

Structure (SMILES): CO[C@H]1/C=C/C=C/C=C/C[C@H](OC(=O)[C@@H](C)NC(=O)C2CCCCC2)[C@H](C)[C@@H](O)/C(C)=C\CCc2cc(O)cc(c2O)NC(=O)C1
MIC (Pichia kudriavzevii): 4 µg/mL (≈ 6.26 µM)
MIC (Saccharomyces cerevisiae): 4 µg/mL (≈ 6.26 µM)
MIC (Aspergillus japonicus): 4 µg/mL (≈ 6.26 µM)
MIC (Rhizopus delemar): 4 µg/mL (≈ 6.26 µM)
MIC (Rhizomucor pusillus): 4 µg/mL (≈ 6.26 µM)
MIC (L5178Y): 0.11 µg/mL (≈ 0.172 µM)
LD50 at 144 h [19]: 80 mg/kg
MIC (Cyberlindnera jadinii): 4 µg/mL (≈ 6.26 µM)
MIC (Penicillium chrysogenum): 4 µg/mL (≈ 6.26 µM)
